IC50 and efflux ratio data for 13 compounds are collected here from patent publication US11834453B2, “Substituted pyrimido[5,4-d]pyrimidines as HER2 inhibitors” (Array BioPharma Inc., priority 2020, dated 2023).

SMILES strings stand for the structures.

The target of one data set is ErbB2 WT (Homo sapiens (Human), UniProt P04626). The data set can be described thus: ErbB enzyme assay (CisBio HTRF KinEASE-TK), Assay 2. Type of data set: biochemical. In outline:
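Readout is HTRF KinEASE-TK, using Sa-XL665 and cryptate antibody for 1 h at 22 °C, as percent of control between DMSO-only (100) and pre-quenched (0) reactions. The kinase reaction runs 30 min at 22 °C with 1 mM ATP and 250 nM biotinylated TK substrate, in HEPES pH 7.4 with MgCl2 and 2% DMSO.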

Data set [1] deals with ErbB2 with Exon 20 YVMA insertion (HER2-YVMA) (Homo sapiens (Human), UniProt P04626, INS775YVMA). The data set can be described thus: Cellular phosphorylation assay, constitutive ErbB2 phosphorylation (Y1196) in engineered NIH 3T3 cells, Assay 4. The data set is classed as cell-based. The method, boiled down:
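In-cell Western in NIH 3T3 cells carrying ErbB2 exon 20 YVMA insertion, with no ligand stimulation. One hour compound exposure at 37 °C before fixation and anti-pY1196 plus GAPDH staining with dual-wavelength fluorescence. IC50 derived after GAPDH normalization.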

For the next data set, the target named is EGFR wild type (EGFR WT) (Homo sapiens (Human), UniProt P00533). The data set can be described thus: Cellular phosphorylation assay, EGF-stimulated EGFR phosphorylation in engineered NIH 3T3 cells, Phospho-EGFR DuoSet IC ELISA, Assay 5. Type of data set: cell-based. In outline:
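Phospho-EGFR ELISA on lysates of engineered NIH 3T3 EGFR WT cells, IC50 derived from concentration curves. Cells plated at 20,000/well overnight, given compound dilutions 1 h at 37 °C, then rEGF 100 ng/ml for a further 10 min before lysis.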
For orientation: An ELISA detects its analyte on a solid surface through an enzyme-linked reagent.

The target of the next data set is EGFR (Homo sapiens (Human), UniProt P00533). The data set can be described thus: ErbB enzyme assay (CisBio HTRF KinEASE-TK), Assay 3. The data set is classed as biochemical. The method, boiled down: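 HTRF dual-wavelength read after 1 h detection; POC normalised to DMSO (100) and pre-quenched (0) controls, IC50 where 4-parameter curve crosses 50 POC. Reaction: 250 nM TK-substrate biotin, 1 mM ATP, pH 7.4 HEPES buffer with MgCl2, 30 min, 22 °C.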
Background: TR-FRET usually uses a lanthanide donor and a delayed reading to cut background.

The target of another data set is MDR1 (P-gp) (Homo sapiens (Human), UniProt P08183). The data set can be described thus: MDR1 transfected LLC-PK1 permeability/efflux, Assay 6. As to conditions: pig, LLC-PK1, Assay 6 Pe Ratio, efflux ratio Papp(B-A)/Papp(A-B), MDR1 transfected LLC-PK1.
Data set [2] deals with ErbB2 insYVMA (HER2-YVMA, SEQ ID NO: 2) (Homo sapiens, UniProt P04626, INS775YVMA/P1170A). In words: biochemical. As to conditions: ErbB2 insYVMA enzyme assay; read-out: Assay 1 IC50.

Sequence of MDR1 (P-gp) (P08183 whole entry): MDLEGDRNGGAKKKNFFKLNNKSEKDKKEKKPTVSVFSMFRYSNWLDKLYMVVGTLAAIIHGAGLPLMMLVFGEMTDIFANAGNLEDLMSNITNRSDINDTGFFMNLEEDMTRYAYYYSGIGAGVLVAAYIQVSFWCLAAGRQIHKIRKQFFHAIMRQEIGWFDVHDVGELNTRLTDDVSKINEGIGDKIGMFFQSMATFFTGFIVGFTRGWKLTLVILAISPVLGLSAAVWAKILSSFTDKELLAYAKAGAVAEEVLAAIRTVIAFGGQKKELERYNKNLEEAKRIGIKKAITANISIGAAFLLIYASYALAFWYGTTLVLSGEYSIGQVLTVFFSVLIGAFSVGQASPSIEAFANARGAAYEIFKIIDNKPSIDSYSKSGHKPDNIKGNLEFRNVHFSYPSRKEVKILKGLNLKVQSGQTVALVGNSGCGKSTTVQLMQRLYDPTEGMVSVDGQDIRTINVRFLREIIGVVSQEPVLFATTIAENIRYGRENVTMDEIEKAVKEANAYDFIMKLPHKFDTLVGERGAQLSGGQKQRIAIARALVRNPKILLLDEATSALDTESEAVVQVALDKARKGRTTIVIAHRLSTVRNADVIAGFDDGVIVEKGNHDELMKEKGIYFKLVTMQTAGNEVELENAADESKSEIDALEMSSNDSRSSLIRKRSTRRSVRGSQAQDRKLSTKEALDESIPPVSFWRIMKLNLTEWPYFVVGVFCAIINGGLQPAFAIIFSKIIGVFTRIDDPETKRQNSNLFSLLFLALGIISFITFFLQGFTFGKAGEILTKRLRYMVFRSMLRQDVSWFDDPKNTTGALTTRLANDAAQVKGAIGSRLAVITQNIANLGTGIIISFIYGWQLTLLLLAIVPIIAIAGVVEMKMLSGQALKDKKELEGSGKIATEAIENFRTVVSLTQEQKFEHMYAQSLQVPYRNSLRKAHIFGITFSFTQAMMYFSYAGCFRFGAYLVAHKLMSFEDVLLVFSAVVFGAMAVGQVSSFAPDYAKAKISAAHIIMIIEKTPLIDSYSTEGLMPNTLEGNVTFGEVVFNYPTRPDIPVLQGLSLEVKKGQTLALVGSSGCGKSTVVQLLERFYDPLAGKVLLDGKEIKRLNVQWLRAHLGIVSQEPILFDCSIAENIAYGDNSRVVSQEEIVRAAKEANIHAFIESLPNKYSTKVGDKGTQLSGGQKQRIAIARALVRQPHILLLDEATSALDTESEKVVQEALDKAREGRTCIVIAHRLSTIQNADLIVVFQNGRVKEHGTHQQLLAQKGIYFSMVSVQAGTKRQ
Sequence of ErbB2 WT (P04626 23-1255): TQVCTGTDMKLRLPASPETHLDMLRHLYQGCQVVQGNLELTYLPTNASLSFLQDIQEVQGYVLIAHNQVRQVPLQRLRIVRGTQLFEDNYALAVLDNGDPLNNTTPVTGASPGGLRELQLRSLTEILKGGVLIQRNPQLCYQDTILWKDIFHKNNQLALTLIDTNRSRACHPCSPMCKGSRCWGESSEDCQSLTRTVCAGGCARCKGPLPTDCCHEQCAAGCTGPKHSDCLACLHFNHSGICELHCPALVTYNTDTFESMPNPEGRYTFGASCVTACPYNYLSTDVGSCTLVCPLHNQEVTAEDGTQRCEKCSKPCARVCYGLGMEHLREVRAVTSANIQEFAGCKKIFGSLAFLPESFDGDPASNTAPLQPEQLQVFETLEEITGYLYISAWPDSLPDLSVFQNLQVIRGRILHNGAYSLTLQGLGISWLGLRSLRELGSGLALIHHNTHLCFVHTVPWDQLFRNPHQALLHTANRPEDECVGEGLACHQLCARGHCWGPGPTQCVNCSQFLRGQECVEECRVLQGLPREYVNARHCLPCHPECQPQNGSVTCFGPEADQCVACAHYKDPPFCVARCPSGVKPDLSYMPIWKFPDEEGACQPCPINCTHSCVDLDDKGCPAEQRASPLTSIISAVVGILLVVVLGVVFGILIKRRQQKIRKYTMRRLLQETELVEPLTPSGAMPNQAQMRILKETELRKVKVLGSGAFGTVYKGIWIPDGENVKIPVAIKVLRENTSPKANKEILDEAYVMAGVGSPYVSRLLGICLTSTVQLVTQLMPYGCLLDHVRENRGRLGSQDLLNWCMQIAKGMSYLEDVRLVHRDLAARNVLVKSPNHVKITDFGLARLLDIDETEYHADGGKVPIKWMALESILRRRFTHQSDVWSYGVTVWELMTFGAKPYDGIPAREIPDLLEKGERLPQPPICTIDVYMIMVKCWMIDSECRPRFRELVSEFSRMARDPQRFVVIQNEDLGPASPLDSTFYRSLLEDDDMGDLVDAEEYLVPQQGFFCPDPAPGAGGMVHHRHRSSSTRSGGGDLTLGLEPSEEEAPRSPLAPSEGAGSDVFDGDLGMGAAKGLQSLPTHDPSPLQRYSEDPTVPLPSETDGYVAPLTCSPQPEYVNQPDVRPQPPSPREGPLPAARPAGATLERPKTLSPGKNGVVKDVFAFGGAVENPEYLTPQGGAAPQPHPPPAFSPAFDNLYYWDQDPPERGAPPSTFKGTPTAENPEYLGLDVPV
Sequence of ErbB2 with Exon 20 YVMA insertion (HER2-YVMA) (P04626 other isoform, or with tags, fused parts or gaps ins YVMA behind 775): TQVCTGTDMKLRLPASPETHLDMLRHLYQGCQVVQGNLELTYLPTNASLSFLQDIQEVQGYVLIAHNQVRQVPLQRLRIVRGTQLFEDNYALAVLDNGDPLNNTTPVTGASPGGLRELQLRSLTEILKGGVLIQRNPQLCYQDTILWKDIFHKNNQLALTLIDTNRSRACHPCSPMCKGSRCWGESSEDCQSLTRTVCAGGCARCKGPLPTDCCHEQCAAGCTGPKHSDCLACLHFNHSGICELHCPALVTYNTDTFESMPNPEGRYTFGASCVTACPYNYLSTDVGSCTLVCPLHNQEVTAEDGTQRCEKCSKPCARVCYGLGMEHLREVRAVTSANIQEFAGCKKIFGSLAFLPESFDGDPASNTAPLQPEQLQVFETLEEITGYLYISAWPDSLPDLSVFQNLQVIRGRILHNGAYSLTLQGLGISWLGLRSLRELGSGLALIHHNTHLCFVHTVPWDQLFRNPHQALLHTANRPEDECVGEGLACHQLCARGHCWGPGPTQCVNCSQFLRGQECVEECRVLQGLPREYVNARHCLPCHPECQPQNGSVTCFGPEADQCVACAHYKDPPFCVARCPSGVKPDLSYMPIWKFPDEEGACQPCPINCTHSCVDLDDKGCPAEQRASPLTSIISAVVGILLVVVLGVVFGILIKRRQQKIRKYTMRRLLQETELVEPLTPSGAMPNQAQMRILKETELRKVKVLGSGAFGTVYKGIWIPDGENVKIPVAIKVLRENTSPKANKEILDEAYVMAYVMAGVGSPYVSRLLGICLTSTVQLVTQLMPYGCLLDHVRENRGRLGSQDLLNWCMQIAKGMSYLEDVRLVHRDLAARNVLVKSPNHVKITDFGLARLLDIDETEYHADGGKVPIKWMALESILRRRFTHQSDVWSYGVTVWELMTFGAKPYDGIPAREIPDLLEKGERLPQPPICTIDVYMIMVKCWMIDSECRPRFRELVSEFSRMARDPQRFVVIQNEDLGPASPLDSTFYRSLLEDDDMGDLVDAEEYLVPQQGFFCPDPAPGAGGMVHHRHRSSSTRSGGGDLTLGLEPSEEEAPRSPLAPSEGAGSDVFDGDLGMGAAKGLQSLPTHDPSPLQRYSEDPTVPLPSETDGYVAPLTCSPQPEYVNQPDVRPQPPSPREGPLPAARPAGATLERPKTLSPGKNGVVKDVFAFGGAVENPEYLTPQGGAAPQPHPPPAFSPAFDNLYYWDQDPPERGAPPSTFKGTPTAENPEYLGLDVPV
Sequence of EGFR wild type (EGFR WT) (P00533 25-1210): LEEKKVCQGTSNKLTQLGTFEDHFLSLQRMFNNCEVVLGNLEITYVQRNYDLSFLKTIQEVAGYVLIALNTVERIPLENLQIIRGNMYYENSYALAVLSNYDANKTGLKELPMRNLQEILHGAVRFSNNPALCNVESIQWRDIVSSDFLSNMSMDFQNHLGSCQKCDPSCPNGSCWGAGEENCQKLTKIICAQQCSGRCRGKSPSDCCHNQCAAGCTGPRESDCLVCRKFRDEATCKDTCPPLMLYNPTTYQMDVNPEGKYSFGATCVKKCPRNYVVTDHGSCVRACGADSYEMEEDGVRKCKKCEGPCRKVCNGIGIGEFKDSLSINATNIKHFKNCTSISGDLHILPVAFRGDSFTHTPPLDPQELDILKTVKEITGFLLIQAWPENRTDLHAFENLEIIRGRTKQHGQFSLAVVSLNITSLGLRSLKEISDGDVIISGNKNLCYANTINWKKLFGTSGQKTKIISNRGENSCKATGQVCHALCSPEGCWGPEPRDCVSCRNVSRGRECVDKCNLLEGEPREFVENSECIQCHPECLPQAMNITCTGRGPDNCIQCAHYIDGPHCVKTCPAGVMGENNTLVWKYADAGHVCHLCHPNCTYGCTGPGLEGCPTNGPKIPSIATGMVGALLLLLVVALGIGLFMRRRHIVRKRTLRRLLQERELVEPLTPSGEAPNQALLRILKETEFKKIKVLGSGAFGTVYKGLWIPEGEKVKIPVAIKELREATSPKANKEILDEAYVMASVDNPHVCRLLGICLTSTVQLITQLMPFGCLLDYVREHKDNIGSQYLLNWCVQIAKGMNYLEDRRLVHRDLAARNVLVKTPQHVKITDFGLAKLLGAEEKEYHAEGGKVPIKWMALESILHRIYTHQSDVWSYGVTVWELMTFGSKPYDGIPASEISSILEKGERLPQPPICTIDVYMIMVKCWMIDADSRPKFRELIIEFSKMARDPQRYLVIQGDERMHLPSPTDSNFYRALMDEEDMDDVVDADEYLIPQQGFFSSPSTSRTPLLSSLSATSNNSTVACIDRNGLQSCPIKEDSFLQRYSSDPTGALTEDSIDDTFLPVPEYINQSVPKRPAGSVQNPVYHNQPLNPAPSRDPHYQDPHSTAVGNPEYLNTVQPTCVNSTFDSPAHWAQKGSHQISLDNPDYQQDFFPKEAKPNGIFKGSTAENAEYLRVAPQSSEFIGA
Procedure for MDR1 (P-gp): Both MDR1 transfected LLC-PK1 (Assay 6) and MDR1 transfected MDCKII canine Mdr1 knockout cells (Assay 7) were cultured and plated according to manufacturer's recommendations with the exception that the passage media for the MDR1 transfected LLC-PK1 cell line contained only 2% fetal bovine serum so as to extend passage time out to seven days.
Both positive and negative controls were used to assess functionality of P-gp or BCRP efflux in the assays. Stock solutions for assay controls and the test article were prepared in DMSO for final test concentration of 1 μM. Final organic concentration in the assay was 1%. All dosing solutions contained 10 μM lucifer yellow to monitor MDCKII cell monolayer integrity.
For the apical to basolateral determination (A to B), 75 μL of the test article in transport buffer were added to the apical side of the individual transwells and 250 μL of basolateral media, without compound or lucifer yellow, were added to each well. For the basolateral to apical determination (B to A), 250 μL of test article in transport buffer were added to each well and 75 μL transport buffer, without compound or lucifer yellow, were added to each transwell. All tests were performed in triplicate, and each compound was tested for both apical to basolateral and basolateral to apical transport. The plates were incubated for 2 hours on a Lab-Line Instruments Titer Orbital Shaker (VWR, West Chester, PA) at 50 rpm and 37° C. with 5% CO2. All culture plates were removed from the incubator, 50 μL of media were removed from the apical and basolateral portion of each well, and added to 150 μL of 1 μM labetalol in 2:1 acetonitrile (ACN): H2O, v/v.
The plates were read using a Molecular Devices (Sunnyvale, CA) Gemini Fluorometer to evaluate the lucifer yellow concentrations at excitation/emission wavelengths of 425/535 nm. These values were accepted when found to be below 2% for apical to basolateral and 5% basolateral to apical flux across the MDR1-transfected LLC-PK1 or BCRP-transfected MDCKII cell monolayers. The plates were sealed, and the contents of each well analyzed by LC MS/MS. The compound concentrations were determined from the ratio of the peak areas of the compound to the internal standard (labetalol) in comparison to the dosing solution.
A MDS Sciex API 4000 (Applied Biosystems, Foster City, CA) mass spectrometer was used for detection of the analytes in the ion spray positive mode. Analyte responses were measured by multiple reaction monitoring (“MRM”) of transitions unique to each compound (the protonated precursor ion and selected product ions for each test article and m/z 329 to m/z 162 for labetalol, the internal standard.
The total run time, including re-equilibration, for a single injection was 1.2 minutes. […] The total run time, including re-equilibration, for a single injection was 0.61 minutes.
An efflux ratio is calculated from the mean apical to basolateral (A-B) Papp data and basolateral to apical (B-A) Papp data: Efflux ratio=Papp(B−A)/Papp(A−B)

As to `Cc1cc(Nc2ncnc3cnc(N4CCOC5CC54)nc23)ccc1Oc1ccc2c(c1)ncn2C` (racemic) [Example 60, 6-(2-oxa-5-azabicyclo[4.1.0]heptan-5-yl)-N-(3-methyl-4-((1-methyl-1H-benzo[d]imidazol-5-yl)oxy)phenyl)pyrimido[5,4-d]pyrimidin-4-amine], the half-maximal inhibitory concentration (IC50) against ErbB2 WT is 0.0276 µM; in data set [1] it was 0.0085 µM; against EGFR wild type (EGFR WT), at least 5 µM; against EGFR it was 8.86 µM; in data set [2], 0.0194 µM. For the same compound, the efflux ratio at 2 h, 1 μM at MDR1 (P-gp) worked out at 2.6.
As to `Cc1cc(Nc2ncnc3cnc(N[C@H]4CCOC4)nc23)ccc1Oc1ccc2c(c1)ncn2C` [Example 17, (S)—N8-(3-methyl-4-((1-methyl-1H-benzo[d]imidazol-5-yl)oxy)phenyl)-N2-(tetrahydrofuran-3-yl)pyrimido[5,4-d]pyrimidine-2,8-diamine], the 50% inhibitory concentration (IC50) is 0.006 µM on ErbB2 WT; 0.0092 µM in data set [1]; at least 5 µM against EGFR wild type (EGFR WT); 2.35 µM against EGFR; 0.007 µM in data set [2]. Also, at MDR1 (P-gp), the efflux ratio at 2 h, 1 μM stood at 6.6.
In the case of `Cc1cc(Nc2ncnc3cnc(NC45CC(C4)C5)nc23)ccc1Oc1ccc2c(c1)ncn2C` [Example 18, N2-(bicyclo[1.1.1]pentan-1-yl)-N8-(3-methyl-4-((1-methyl-1H-benzo[d]imidazol-5-yl)oxy)phenyl)pyrimido[5,4-d]pyrimidine-2,8-diamine], the IC50 was 0.167 µM against ErbB2 WT; 0.0478 µM in data set [1]; at least 5 µM against EGFR wild type (EGFR WT); at least 10 µM against EGFR; 0.122 µM in data set [2]. The efflux ratio at 2 h, 1 μM at MDR1 (P-gp) stood at 2.6.
For `CC(=O)N1CCN(c2ncc3ncnc(Nc4ccc(Oc5ccc6c(c5)ncn6C)c(C)c4)c3n2)CC1` [Example 24, 1-(4-(8-((3-methyl-4-((1-methyl-1H-benzo[d]imidazol-5-yl)oxy)phenyl)amino)pyrimido[5,4-d]pyrimidin-2-yl)piperazin-1-yl)ethan-1-one], the half-inhibitory concentration (IC50) on ErbB2 WT is 0.0315 µM; in data set [1], 0.0071 µM; on EGFR wild type (EGFR WT), at least 5 µM; against EGFR, at least 10 µM; in data set [2], 0.0182 µM. Moreover, the efflux ratio at 2 h, 1 μM at MDR1 (P-gp) amounted to 30.
Consider `Cc1cc(Nc2ncnc3cnc(N4CCN(C)C4=O)nc23)ccc1Oc1ccc2c(c1)ncn2C` [Example 28, 1-methyl-3-(8-((3-methyl-4-((1-methyl-1H-benzo[d]imidazol-5-yl)oxy)phenyl)amino)pyrimido[5,4-d]pyrimidin-2-yl)imidazolidin-2-one], for which the IC50 against ErbB2 WT is 0.163 µM; in data set [1], 0.0248 µM; against EGFR wild type (EGFR WT), at least 5 µM; at EGFR, at least 10 µM; in data set [2] it was 0.0687 µM. Further, the efflux ratio at 2 h, 1 μM at MDR1 (P-gp) is 13.3.
Turning to `Cc1cc(Nc2ncnc3cnc(NC4=NC(C)(C)CO4)nc23)ccc1Oc1ccc2c(c1)ncn2C` [Example 32, N2-(4,4-dimethyl-4,5-dihydrooxazol-2-yl)-N8-(3-methyl-4-((1-methyl-1H-benzo[d]imidazol-5-yl)oxy)phenyl)pyrimido[5,4-d]pyrimidine-2,8-diamine], the IC50 against ErbB2 WT was 0.0434 µM; in data set [1], 0.0134 µM; against EGFR wild type (EGFR WT) it was at least 5 µM; against EGFR, at least 10 µM; in data set [2] it was 0.0346 µM. Further, the efflux ratio at 2 h, 1 μM at MDR1 (P-gp) was found to be 34.5.
Consider `Cc1cc(Nc2ncnc3cnc(N4CCCC4=O)nc23)ccc1Oc1ccc2c(c1)ncn2C` [Example 34, 1-(8-((3-methyl-4-((1-methyl-1H-benzo[d]imidazol-5-yl)oxy)phenyl)amino)pyrimido[5,4-d]pyrimidin-2-yl)pyrrolidin-2-one], for which the half-inhibitory concentration (IC50) on ErbB2 WT was 0.307 µM; in data set [1], 0.0305 µM; on EGFR wild type (EGFR WT), at least 5 µM; against EGFR, at least 10 µM; in data set [2] it was 0.123 µM. The efflux ratio at 2 h, 1 μM on MDR1 (P-gp) is 6.3.
Turning to `CNc1ncc2ncnc(Nc3ccc(Oc4ccc5scnc5c4)c(C)c3)c2n1` [Example 50, N8-(4-(benzo[d]thiazol-5-yloxy)-3-methylphenyl)-N2-methylpyrimido[5,4-d]pyrimidine-2,8-diamine 2,2,2-trifluoroacetate], the IC50 was 0.0114 µM at ErbB2 WT; 0.0936 µM in data set [1]; at least 5 µM at EGFR wild type (EGFR WT); 0.363 µM on EGFR; 0.0048 µM in data set [2]. Further, the efflux ratio at 2 h, 1 μM at MDR1 (P-gp) came out at 1.2.
As to `Cc1cc(Nc2ncnc3cnc(N4C[C@H]5CCCN5C4=O)nc23)ccc1Oc1ccc2c(c1)ncn2C` [Example 66, (R)-2-(8-((3-methyl-4-((1-methyl-1H-benzo[d]imidazol-5-yl)oxy)phenyl)amino)pyrimido[5,4-d]pyrimidin-2-yl)hexahydro-3H-pyrrolo[1,2-c]imidazol-3-one], the concentration for half-maximal inhibition (IC50) against ErbB2 WT was 0.18 µM; in data set [1], 0.0414 µM; on EGFR wild type (EGFR WT), at least 5 µM; at EGFR, at least 10 µM; in data set [2], 0.0539 µM. Moreover, the efflux ratio at 2 h, 1 μM at MDR1 (P-gp) is 11.6.
`Cc1cc(Nc2ncnc3cnc(N[C@@H]4CCNC[C@@H]4F)nc23)ccc1Oc1ccc2c(c1)ncn2C` [Example 83, N2-((3S,4R)-3-fluoropiperidin-4-yl)-N8-(3-methyl-4-((1-methyl-1H-benzo[d]imidazol-5-yl)oxy)phenyl)pyrimido[5,4-d]pyrimidine-2,8-diamine]: the IC50 was 0.0345 µM against ErbB2 WT; 0.0203 µM in data set [1]; at least 5 µM at EGFR wild type (EGFR WT); 5.65 µM against EGFR; 0.0124 µM in data set [2]. Also, the efflux ratio at 2 h, 1 μM at MDR1 (P-gp) was 76.
`Cc1cc(Nc2ncnc3cnc(N[C@@H]4CCN(C)C[C@@H]4F)nc23)ccc1Oc1ccc2c(c1)ncn2C` [Example 84, N2-((3S,4R)-3-fluoro-1-methylpiperidin-4-yl)-N8-(3-methyl-4-((1-methyl-1H-benzo[d]imidazol-5-yl)oxy)phenyl)pyrimido[5,4-d]pyrimidine-2,8-diamine]: the half-maximal inhibitory concentration (IC50) is 0.0472 µM against ErbB2 WT; 0.0255 µM in data set [1]; at least 5 µM on EGFR wild type (EGFR WT); 5.38 µM against EGFR; 0.014 µM in data set [2]. Moreover, the efflux ratio at 2 h, 1 μM on MDR1 (P-gp) stood at 10.2.
Turning to `Cc1cc(Nc2ncnc3cnc(N4CC(C(C)(C)O)C4)nc23)ccc1Oc1ccc2c(c1)ncn2C` [Example 118, 2-(1-(8-((3-methyl-4-((1-methyl-1H-benzo[d]imidazol-5-yl)oxy)phenyl)amino)pyrimido[5,4-d]pyrimidin-2-yl)azetidin-3-yl)propan-2-ol], the IC50 on ErbB2 WT is 0.0887 µM; in data set [1] it was 0.0398 µM; against EGFR wild type (EGFR WT) it was at least 5 µM; against EGFR, at least 10 µM; in data set [2] it was 0.0542 µM. In addition, the efflux ratio at 2 h, 1 μM at MDR1 (P-gp) amounted to 7.4.
For the compound `Cc1cc(Nc2ncnc3cnc(NOCC(C)(C)O)nc23)ccc1Oc1ccc2c(c1)ncn2C` [Example 217, 2-methyl-1-(((8-((3-methyl-4-((1-methyl-1H-benzo[d]imidazol-5-yl)oxy)phenyl)amino)pyrimido[5,4-d]pyrimidin-2-yl)amino)oxy)propan-2-ol], the IC50 was 0.0533 µM on ErbB2 WT, 0.0351 µM in data set [1], at least 5 µM against EGFR wild type (EGFR WT) and 0.0232 µM in data set [2]. Moreover, the efflux ratio at 2 h, 1 μM at MDR1 (P-gp) worked out at 6.

The term IC50 denotes the midpoint of a concentration-inhibition curve. By efflux ratio is commonly meant a quotient of directional permeabilities that is used to spot active efflux.
